Counter-ions that a name gives are not always drawn. Like-named read-outs stand apart in the source and are kept apart here.
Legend:
[1] = in vivo; conditions: rat, oral route, male rats CD1, fasting 16 hours, mortality in seven days
Description: Male rats (CD1 Charles Rivers) were used, weighing […], fasting for 16 hours. […] The mortality was checked in the seven days following the treatment.

[2] = test system: isolated ileum from guinea-pigs; assay: Isolated guinea-pig ileum: contracting (agonist) activity; conditions: Cavia porcellus, read-out: pD2 (negative logarithm of the dose which produces 50% of the maximum effect) (converted)
Description: Sections of ileum were removed from guinea-pigs killed by decapitation. […] The contracting effect of the compounds was detected, with an isometric transducer connected to a recorder. The products under test were added at scalar concentrations between 1×10^-3 and 1×10^-8 moles.
The agonist activity was expressed in pD2 (negative logarithm of the dose which produces 50% of the maximum effect.)

[3] = Hypothermic activity (central cholinomimetic activity); format: in vivo; conditions: Mus musculus, read-out: Effective dose (-1° C.)
Description: (§1) Male mice (CD1 Charles Rivers) were used, weighing 25-30 g, fasting for 6 hours. The body temperature was noted by means of a thermo-couple, inserted in the rectum for about 1.5 cm and connected to an electric temperature indicator.
(§2) The degree of hypothermia was evaluated as the difference between the treated and the control animals, and the dose was determined which was necessary to reduce the body temperature by 1° C.

[4] = Diarrhoea activity; conditions: rat, in vivo, po
Description: Male rats (CD1 Charles Rivers) were used, weighing 25-30 g, fasting for 6 hours. The compounds were administered by oral route, by means of an oesophagic probe, dissolved at 0.5% in methocel. The controls received only the vehicle (20 ml/Kg).
1: faeces moderately soft with or without formation of a halo of humidity
2: faeces moderately soft with formation of a well defined circle of humidity,
3: faeces soft, with formation of a large circle of humidity,
4: faeces without consistency with formation of a very large circle of humidity.

[5] = test system: isolated ileum from guinea-pigs (response induced with acetylcholine); assay: Isolated guinea-pig ileum: antagonist activity against acetylcholine; conditions: Cavia porcellus; antagonist activity vs acetylcholine; Tyrode's solution 37° C.; products added between 1×10^-3 and 1×10^-8 moles; read-out: ED50 (dose inhibiting 50% of the maximum response induced with acetylcholine)
Description: ILEUM FROM GUINEA-PIGS Sections of ileum were removed from guinea-pigs killed by decapitation. The isolated ileum was suspended in a bath containing 10 ml of Tyrode's solution thermo-regulated at 37° C. and aerated with a mixture of O2 (95%) and CO2 (5%). The contracting effect of the compounds was detected, with an isometric transducer connected to a recorder. The products under test were added at scalar concentrations between 1×10^-3 and 1×10^-8 moles. The products endowed with contracting activity were checked against atropine or hexamethonium to establish whether the activity was of muscarine type or nicotine type. The possible antagonist activity of the products was tested against acetylcholine.

[6] = Duration of action: variations of the body temperature; format: in vivo, mouse; conditions: dose mg/kg: Example 3 0,15, 7 1,25
Description: as §1, §2
The duration of action of the products was evaluated using doses of equal ability to cause a reduction of body temperature of 1°-1,5° C.

[7] = test system: patients having a memory defect; conditions: intravenous route; Sitaram 1978, Christie 1981; cited from earlier work
[8] = cited from earlier work
[9] = agonist activity, Tyrode's solution 37° C.
[10] = sc, sub-cutaneous, dose to reduce the body temperature by 1° C.
[11] = oral, dose to reduce the body temperature by 1° C.
[12] = os, 30 minutes, 8 0,5, 10 0,5, arecoline HBr 200, ** p < 0,01 vs controls (all values)
[13] = os, 60 minutes, 8 0,5, 10 0,5, arecoline HBr 200, ** p < 0,01 vs controls (all values)
[14] = os, 120 minutes, 8 0,5, 10 0,5, arecoline HBr 200, ** p < 0,01 for Example 7 only
[15] = os, 180 minutes, 8 0,5, 10 0,5, arecoline HBr 200
[16] = sc, 30 minutes, 8 1, 10 0,75, arecoline HBr 3,5, ** p < 0,01 vs controls (all values)
[17] = sc, 60 minutes, 8 1, 10 0,75, arecoline HBr 3,5, ** p < 0,01 for Examples 3, 7, 8, 10
[18] = sc, 120 minutes, 8 1, 10 0,75, arecoline HBr 3,5, ** p < 0,01 for Example 7 only
[19] = sc, 180 minutes, 8 1, 10 0,75, arecoline HBr 3,5
[20] = os, 0 minutes, 8 0,5, 10 0,5, arecoline HBr 200

SMILES | LD50 at 168 h [1] [mg/kg] | EC50 [2, 9] [µM] | ED (-1 C) [3, 10] [mg/kg] | ED (-1 C) [3, 11] [mg/kg] | ED50 [4] [mg/kg] | IC50 [5] [µM] | variation of the body temperature [6, 12] | variation of the body temperature [6, 13] | variation of the body temperature [6, 14] | variation of the body temperature [6, 16] | variation of the body temperature [6, 17] | variation of the body temperature [6, 18] | variation of the body temperature [6, 19] | also measured
C#CCON=CC1=CCCN(C)C1 [Example 12, 1-methyl-1,2,5,6-tetrahydropyridin-3-carboxaldehyde-O-propargyloxime] | 60 | 0.479 | 0.63 | 2 | 5.5 | – | – | – | – | – | – | – | – | –
CCN1CCC=C(C=NOC)C1.Cl [Example 7, 1-ethyl-1,2,5,6-tetrahydro-pyridin-3-carboxaldehyde-O-methyloxime hydrochloride] | – | > 1000 | 1.16 | 0.97 | 10 | 200 | -1,1 °C | -1,1 °C | -0,6 °C | -0,5 °C | -1,0 °C | -0,6 °C | -0,1 °C | variation of the body temperature [6, 15]: -0,2 °C
CN(C)CCON=CC1=CCCN(C)C1 [Example 6, 3-[2-(N,N-dimethylaminoethoxyimino)-methyl]-1-methyl-1,2,5,6-tetrahydropyridine] | 750 | 148 | – | 135 | > 100 | – | – | – | – | – | – | – | – | –
CCCCN1CCC=C(C=NOC)C1 [Example 9, 1-butyl-1,2,5,6-tetrahydropyridin-3-carboxaldehyde-O-methyloxime] | 30 | > 1000 | 0.85 | 0.79 | 3.5 | 230 | – | – | – | – | – | – | – | –
CCCCCN1CCC=C(C=NOC)C1 [Example 11, 1-pentyl-1,2,5,6-tetrahydropyridin-3-carboxaldehyde-O-methyloxime] | 175 | > 1000 | 4 | 3 | 5 | 160 | – | – | – | – | – | – | – | –
COC(=O)C1=CCCN(C)C1 [Arecoline] | – | – | – | – | – | – | – | – | – | – | – | – | – | EC50 [2]: 0.331 µM; effect on patients having a memory defect [7]: positive effect; duration of action ([8]; in vivo): short duration of action; activity by oral route ([8]; oral route): very weak activity
CCCN1CCC=C(C=NOC)C1 [Example 8] | 100 | 25.1 | 0.83 | 0.34 | 1.7 | – | -1,5 °C | -1,3 °C | -0,4 °C | -0,7 °C | -1,2 °C | -0,2 °C | -0,1 °C | –
COC(=O)C1=CCCN(C)C1 [Arecoline HBr, reference compound] | – | – | – | – | 35 | – | -1,1 °C | -1,0 °C | -0,2 °C | -1,5 °C | -0,1 °C | +0,2 °C | +0,2 °C | ED (-1 C) ([3]; po): 194 mg/kg; ED (-1 C) ([3]; sc): 3 mg/kg; variation of the body temperature [6, 20]: +0,1 °C; variation of the body temperature [6, 15]: -0,1 °C; variation of the body temperature ([6]; sc, 0 minutes, 8 1, 10 0,75, arecoline HBr 3,5): -0,1 °C
CON=CC1=CCCN(C)C1 [Example 1, 1-methyl-1,2,5,6-tetrahydropyridin-3-carboxyaldehyde-O-methyloxime hydrochloride] | – | 0.525 | 0.14 | 0.46 | 0.6 | – | – | – | – | – | – | – | – | –
CCON=CC1=CCCN(C)C1.Cl [Example 2, 1-methyl-1,2,5,6-tetrahydropyridin-3-carboxaldehyde-O-ethyloxime hydrochloride] | 250 | > 1000 | 11 | 13 | 50 | 180 | – | – | – | – | – | – | – | –
CC(C)ON=CC1=CCCN(C)C1 [Example 4, O-isopropyl-N-methyl-1,2,5,6-tetrahydropyridin-3-carboxaldehyde oxime hydrochloride] | 350 | > 1000 | – | 40 | > 100 | 11 | – | – | – | – | – | – | – | –
CC(=O)ON=CC1=CCCN(C)C1 [Example 5, 1-methyl-1,2,5,6-tetrahydropyridin-3-carboxaldehyde-0-acetyl-oxime] | 500 | 51.3 | – | 39 | > 100 | – | – | – | – | – | – | – | – | –
C=CCN1CCC=C(C=NOC)C1 [Example 10, 1-allyl-1,2,5,6-tetrahydropyridin-3-carboxaldehyde-O-methyloxime] | 175 | 15.8 | 0.86 | 0.34 | 1.2 | – | -1,5 °C | -0,7 °C | -0,1 °C | -0,8 °C | -1,0 °C | -0,1 °C | +0,1 °C | variation of the body temperature [6, 20]: -0,1 °C; variation of the body temperature [6, 15]: +0,2 °C
CON=CC1=CCCNC1.Cl [Example 3, 1,2,5,6-tetrahydropyridin-3-carboxaldehyde-O-methyloxime Hydrochloride] | 75 | 0.263 | 0.12 | 0.11 | 0.15 | – | -1,5 °C | -0,8 °C | -0,2 °C | -1,2 °C | -0,8 °C | -0,2 °C | -0,1 °C | variation of the body temperature [6, 20]: +0.1 °C

Source: US5219872A, “Compounds of 1,2,5,6-tetrahydropyridin-3-carboxaldehyde oxime which are useful as cholinergic agents” (Roussel UCLAF, priority 1986, dated 1993)
